Data reported in patent US20200190210A1, “NEW TARGET FOR TREATING CANCER” (TONGJI UNIVERSITY SUZHOU INSTITUTE BIOMEDICAL RESEARCH …, priority 2017, published 2020).

Assays:
[1] = molecular target: T1, interaction of TM4SF1 and DDR1 (Homo sapiens, UniProt P30408); experiment: Co-immunoprecipitation / Western Blotting of TM4SF1 and DDR1 co-overexpressed in 293FT cells, Collagen I stimulated; assay type: cell-based; conditions: 293FT cells co-overexpressing TM4SF1 and DDR1, peptide overexpressed in 293FT cells and purified, Collagen I 10 μg/ml, 6 hours, FIG. 9
T1 construct: expressed in transfected cells; host or cells: 293FT cells
T1 sequence (P30408 1-202): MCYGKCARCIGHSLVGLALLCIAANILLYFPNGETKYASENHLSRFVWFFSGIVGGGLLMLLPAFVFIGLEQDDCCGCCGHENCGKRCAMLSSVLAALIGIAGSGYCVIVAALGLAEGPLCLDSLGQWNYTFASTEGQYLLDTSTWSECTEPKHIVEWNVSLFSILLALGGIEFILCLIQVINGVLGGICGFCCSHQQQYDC
Method: 293FT cells were cultured in DMEM-HG medium and digested with trypsin. The cells were counted and seeded at a density of 1×10^6 cells per dish in 6 cm (diameter) culture dish. The next day, 700 μl of serum-free DMEM-HG medium was respectively added to two centrifuge tubes. 10 μl of P-Pei transfection reagent was added to the first centrifuge tube. 1 μg PQCXIP-hTM4SF1 plasmid and 1 μg PQCXIN-hDDR1 plasmid were added to the second centrifuge tube and mixed well. The resultant from the second centrifuge tube was added to the first centrifuge tube and incubated for 20 min to obtain the transfection mixture. The culture medium of the 293FT cells seeded the day before was removed, and the transfection mixture above was added to the culture dish and incubated for 6 hours. Fresh medium was added to continue the culture. 48 hours after the transfection, the medium was removed, 2 ml of serum-free DMEM-HG medium containing a certain concentration of FC17-7 antibody obtained in Example 1 or IgG (as a negative control) was added. After incubating the culture dish at 37° C. for 5 minutes, Collagen I was added to the culture dish to a final concentration of 10 μg/ml. The cells were cultured for 6 hours and then collected. […] After the elution, the mixture was centrifuged at 3,000 rpm for 2 min to collect the supernatant, and the protein expression was detected by Western Blotting. […]

[2] = tested on: p-STAT3 (TM4SF1 associated non-classical DDR1 signaling pathway); experiment: Western Blotting of p-STAT3, TM4SF1 associated non-classical DDR1 signaling pathway, in cells overexpressing TM4SF1 and DDR1; assay type: cell-based, human; conditions: Collagen I 10 μg/ml, 12 hours, FIG. 10; for inhibition of P-STAT3 / downstream signal transduction (Western Blotting), peptide: cells overexpressing TM4SF1 and DDR1, PBS negative control
Method: The transfection method has been described in Example 4. 48 hours after transfection, the medium was removed, 2 ml of serum-free DMEM-HG medium containing a certain concentration of FC17-7 antibody obtained in Example 1 or IgG (as a negative control) was added. After incubating the culture dish at 37° C. for 5 minutes, Collagen I was added to the culture dish to a final concentration of 10 μg/ml and cultured for 12 hours. The cells were collected and lysed with IP-RIPA buffer in a refrigerator at 4° C. for 1 h. The lysate was sonicated twice (15 s 30% power), then centrifuged at 12,000 rpm for 30 min. The supernatant was sampled to determine the protein concentration, and the protein concentration of each sample was adjusted to be the same. The sample was subjected to SDS-PAGE electrophoresis, and the proteins were transferred to a membrane by conventional way in Western Blotting, and then stained with the antibody.
The transfection method has been described in Example 4. 48 hours after transfection, the medium was removed, 2 ml of serum-free DMEM-HG medium containing a certain concentration of the extracellular loop 1 peptide of TM4SF1 prepared in Example 3 or PBS (as a negative control) was added. After incubating the culture dish at 37° C. for 5 minutes, Collagen I was added to the culture dish to a final concentration of 10 μg/ml. The cells were cultured for 12 hours and then collected. The cells were lysed with IP-RIPA buffer in a refrigerator at 4° C. for 1 h. The lysate was sonicated twice (15 s 30% power), and then centrifuged at 12,000 rpm for 30 min. The supernatant was sampled to determine the protein concentration, and the protein concentration of each sample was adjusted to be the same. The sample was subjected to SDS-PAGE electrophoresis, and the proteins were transferred to a membrane by a conventional way used in Western Blotting, and then stained with antibody.

[3] = tested on: MDAMB231-BoM-1833-TGL cells; experiment: Breast cancer metastasis mouse model (ventricular injection of tumor cells, in vivo imaging, survival); conditions: peptide injected from Day -1 every other day; for metastasis of breast cancer, peptide: mice, IgG negative control, FIGS. 11 and 12
Method: The day before the injection of tumor cells into mice was recorded as Day −1 of the experiment. On Day −1, the mice were fasted for 4 hours, injected with the desired concentration of FC17-7 antibody obtained in Example 1 or IgG (as a negative control), and given food after 2 hours. After the first injection, the mice were injected with antibodies every three days. On Day 0 of the experiment, MDAMB231-BoM-1833-TGL cells were blocked with antibodies according to the method of Example 4. After 6 hours, the cells were digested. The medium was removed, and the cells were washed with PBS once and resuspended in PBS to a concentration of 1×10^6 cells/ml. Then, mice were injected with 1×10^5 tumor cells/100 μl by ventricular injection to establish a mouse metastasis model. Every other week, the mice were subjected to in vivo imaging to record the fluorescence signal data. By establishing a breast cancer metastasis model, periodically administration of the monoclonal antibody FC17-7 prepared in Example 1 was performed in mice.
The day before the injection of tumor cells into mice was recorded as Day −1 of the experiment. On Day −1, the mice were fasted for 4 hours, and injected with the desired concentration of the extracellular loop 1 peptide of TM4SF1 prepared in Example 3 or IgG (as negative control), and given food after 2 hours. After the first injection of the peptide, the mice were injected with the peptide every other day. On Day 0 of the experiment, MDAMB231-BoM-1833-TGL cells were blocked with the peptide according to the method of Example 9. After 6 hours, the cells were digested. The medium was removed, and the cells were washed with PBS once, and resuspended in PBS to a concentration of 1×10^6 cells/ml. For the method of establishing a breast cancer metastasis mouse model, refer to the method in Example 7.

[4] = listed as small extracellular loop 1 peptide of TM4SF1

In the case of “FPNGETKYASENHLSRC [extracellular loop 1 peptide of TM4SF1]”, the “disruption of the interaction between TM4SF1 and DDR1 (co-immunoprecipitation), peptide” value [1] is reported as “significantly disrupt the interaction between TM4SF1 and DDR1”, the “disruption of the interaction between TM4SF1 and DDR1 (co-immunoprecipitation), peptide” value [1, 4] is reported as “disrupts the interaction between TM4SF1 and DDR1” and the “inhibition of P-STAT3 / downstream signal transduction (Western Blotting), peptide” value [2] is reported as “began to inhibit P-STAT3”. For the same sequence, the “inhibition of P-STAT3 / downstream signal transduction (Western Blotting), peptide” value [2, 4] was “inhibits downstream signal transduction”, the “concentration at which the peptide began to inhibit P-STAT3” value ([2]; different concentrations of peptide, dose-dependent) was 9 µg/mL and the “metastasis of breast cancer, peptide” value [3] was “significantly inhibit the metastasis of breast cancer”. The “metastasis of breast cancer, peptide” value [3, 4] was “significantly inhibits metastasis of breast cancer”, the “survival time of the mice, peptide” value ([3]; FIG. 13) was “prolong the survival time of the mice” and the “survival time of the mice, peptide” value ([3]; FIG. 13, listed as small extracellular loop 1 peptide of TM4SF1) was “prolongs the survival mice”.
